Reference: paper PMC9329353, “Structures of Atm1 provide insight into [2Fe-2S] cluster export from mitochondria” (Nature Communications, 2022)

Key:
CtAtm1 [1] = molecular target: T1, CtAtm1 (Thermochaetoides thermophila, UniProt G0SBE6); experiment: ATPase assay (phosphate release, absorbance at […] nm); type: biochemical; details: 1 mM ATP, 5 mM MgCl2, 37 °C, detergent or nanodisc; no exogenous cargo
T1 construct: gene CTHT_0050000; full-length, C-terminal TEV site and His8 (pET-52b-CtATM1-TEV-His8), E. coli C43(DE3); DDM or MSP1D1 nanodiscs; homodimer; first 94 and last 26 residues not modelled (580 modelled)

CtAtm1 [2] = molecular target: T2, CtAtm1 (Thermochaetoides thermophila, UniProt G0SBE6, E603Q); experiment: cryo-EM structure, […] Å; details: nanodiscs, 1 mM ATP, 1 mM GSSG, 1 mM MgCl2; occluded state; nucleotide-binding domains
T2 construct: gene CTHT_0050000; full-length, C-terminal TEV site and His8 (pET-52b-CtATM1-TEV-His8), E. coli C43(DE3); DDM or MSP1D1 nanodiscs; homodimer; first 94 and last 26 residues not modelled (580 modelled)

[3] = molecular target: CtAtm1 (ABC transporter of mitochondria 1 from Chaetomium thermophilum), wild type (Chaetomium thermophilum); experiment: cryo-EM structure; wild-type CtAtm1 in lipid nanodiscs (MSP1D1), incubated with 1 mM ATP and 2 mM MgCl2 for 30 min on ice, no cargo added; inward-facing open state, 3.0 Å

T2 sequence (G0SBE6 entry or part of it E603Q): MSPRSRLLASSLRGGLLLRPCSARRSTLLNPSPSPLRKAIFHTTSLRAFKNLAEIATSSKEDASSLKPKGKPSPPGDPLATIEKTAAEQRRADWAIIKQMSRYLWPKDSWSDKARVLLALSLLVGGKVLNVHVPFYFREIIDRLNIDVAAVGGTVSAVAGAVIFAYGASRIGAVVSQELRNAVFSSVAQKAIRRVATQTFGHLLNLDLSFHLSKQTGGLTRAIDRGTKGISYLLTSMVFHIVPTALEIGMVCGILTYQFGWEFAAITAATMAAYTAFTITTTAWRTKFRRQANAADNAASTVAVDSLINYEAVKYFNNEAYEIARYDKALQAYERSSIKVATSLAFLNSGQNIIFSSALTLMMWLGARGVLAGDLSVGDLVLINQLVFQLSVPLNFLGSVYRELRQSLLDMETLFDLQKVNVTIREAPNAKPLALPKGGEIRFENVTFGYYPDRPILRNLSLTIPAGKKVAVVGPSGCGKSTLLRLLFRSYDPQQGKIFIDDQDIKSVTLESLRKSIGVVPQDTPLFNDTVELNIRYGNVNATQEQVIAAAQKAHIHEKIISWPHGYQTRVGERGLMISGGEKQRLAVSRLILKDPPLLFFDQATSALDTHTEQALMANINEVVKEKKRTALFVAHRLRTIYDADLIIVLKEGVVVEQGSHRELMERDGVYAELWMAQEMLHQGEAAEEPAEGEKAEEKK
T1 sequence (G0SBE6 entry or part of it): as the sequence (G0SBE6 entry or part of it E603Q) above, with Q603E counted along it

Compound | ATPase assay (phosphate release, absorbance at 620 nm) (CtAtm1 [1]) | cryo-EM structure, 2.8 Å (CtAtm1 [2]) | stoichiometry N [3]
Nc1ncnc2c1ncn2[C@@H]1O[C@H](COP(=O)(O)OP(=O)(O)OP(=O)(O)O)[C@@H](O)[C@H]1O [ATP] | exhibited clear and comparably robust ATP hydrolysis activity in detergent solution | two ATP molecules are readily identified in the cryo-EM density | 
CtAtm1 (ABC transporter of mitochondria 1 from Chaetomium thermophilum), wild type (natural protein) |  |  | 2
